14 molecules from US20240409530A1, “Disubstituted Pyrimidine Compounds for Ketohexokinase Inhibition” (Centennial Therapeutics, LLC, priority 2023, published 2024) can be followed below.

One assay concerns the target Human recombinant KHK-A (Homo sapiens (Human), UniProt P50053). The experiment in a line: KHK inhibition assay, recombinant isozyme (coupled pyruvate kinase/LDH, NADH absorbance 340 nm). Type of assay: biochemical. The following applies: recombinant isozyme 6 nM, fructose 2 mM, ATP 0.1 mM. The method, then: (§1) Determination of Human and Rat recombinant KHK-A and KHK-C isozyme IC50 Values
(§2) An assay reagent cocktail was prepared by combining NADH, water, TEA, KCl, MgCl2, PEP, ATP, DTT, coupling enzymes (pyruvate kinase and lactate dehydrogenase, LDH) to final concentrations as shown in Table B.
(§3) To this was added the relevant KHK isozyme to a final concentration of 6 nM. Aliquots of each inhibitor compound were diluted via 5-fold serial dilutions to produce final concentrations ranging from 1000 nM to 0.064 nM. The inhibitor aliquots were added to the assay reagent cocktail containing KHK with fructose (at a concentration of 2 mM) in a 96-well plate. The absorbance at 340 nm was measured via spectrophotometry and inhibition was analyzed using non-linear regression.

The target of the next assay is Human recombinant KHK-C (Homo sapiens (Human), UniProt P50053). The description is as above. Type of assay: biochemical. The following applies: recombinant isozyme 6 nM, fructose 2 mM, ATP 0.1 mM. The protocol:
as §1, §2, §3

The target of the next assay is Rat recombinant KHK-A (Rattus norvegicus (Rat), UniProt Q02974). Described as above. The format is biochemical. The note with it: recombinant isozyme 6 nM, fructose 2 mM, ATP 0.1 mM. The method, then:
as §1, §2, §3

The target of the next assay is Rat recombinant KHK-C (Rattus norvegicus (Rat), UniProt Q02974). The description is as above. Type of assay: biochemical. The following applies: recombinant isozyme 6 nM, fructose 2 mM, ATP 0.1 mM. The protocol:
as §1, §2, §3

The target in a further assay is human KHK in HepG2 Cells (Homo sapiens (Human), UniProt P50053). The experiment in a line: Cell-based potency assay (HepG2 assay), F1P by LC/MS. The following applies: fructose 20 mM, 20 min, F1P produced. The protocol:
Testing inhibition effect of compounds against human KHK in HepG2 Cells
HepG2 cells were grown in RPMI1640 supplemented media on 100 mm plates to near confluency (about 5-8×10^6 cells). The growth media was aspirated and 4 mL trypsin solution (0.25% (w/v)+0.25% (w/v) EDTA) was added, followed by incubation at 37° C. for 5-10 mins. The cells were pelleted and resuspended in 2 mL complete media.
The cells were then placed in a 96 well plate at 20,000-50,000 cells per well and grown for 20-28 hours at 37° C. to allow adherence.
Inhibitor compounds were diluted in DMSO to 50 μM, then serially diluted with MEM media (ThermoFisher). Final inhibitor concentration ranged from 1000 nM to 0.064 nM (5-fold dilution series).
The RPMI medium was removed from the plate of confluent cells. The plate was then incubated for 35 min at 37°, after which were added 0.1 mL of the diluted inhibitor compounds in MEM with fructose, 0.1 mL of MEM media without inhibitor compound or fructose, or trypsin; yielding a final concentration of fructose at 20 mM. The plate was subsequently incubated for 20 min at 37°, then placed on ice to stop the reactions.
Next, 200 μL of cold 80% (v/v) methanol:water was added to all wells, except the controls used to enumerate cell count. The plate was vortexed and cell debris removed by centrifugation. To measure F1P produced, the resulting supernatant fraction was analyzed by LC/MS.

Sequence of Human recombinant KHK-C (P50053 whole entry): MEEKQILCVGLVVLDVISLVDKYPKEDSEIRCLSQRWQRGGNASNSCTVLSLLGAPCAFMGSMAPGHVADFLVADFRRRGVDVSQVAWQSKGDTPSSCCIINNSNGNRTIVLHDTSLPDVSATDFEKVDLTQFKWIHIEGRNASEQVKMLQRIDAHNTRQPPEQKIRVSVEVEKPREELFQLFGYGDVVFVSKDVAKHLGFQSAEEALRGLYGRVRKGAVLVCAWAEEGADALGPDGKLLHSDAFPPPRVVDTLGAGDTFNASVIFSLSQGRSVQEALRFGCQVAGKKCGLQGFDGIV
Sequence of human KHK in HepG2 Cells (P50053 whole entry): as above
Sequence of Human recombinant KHK-A (P50053 other isoform, or with tags, fused parts or gaps): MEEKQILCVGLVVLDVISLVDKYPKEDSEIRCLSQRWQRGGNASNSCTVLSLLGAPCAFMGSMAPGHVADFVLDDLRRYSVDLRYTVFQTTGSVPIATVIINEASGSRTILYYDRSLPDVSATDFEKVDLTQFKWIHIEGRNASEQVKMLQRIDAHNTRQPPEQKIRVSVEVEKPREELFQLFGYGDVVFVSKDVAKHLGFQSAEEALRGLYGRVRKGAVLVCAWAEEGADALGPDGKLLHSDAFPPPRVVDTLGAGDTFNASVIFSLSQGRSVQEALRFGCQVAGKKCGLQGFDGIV
Sequence of Rat recombinant KHK-C (Q02974 whole entry): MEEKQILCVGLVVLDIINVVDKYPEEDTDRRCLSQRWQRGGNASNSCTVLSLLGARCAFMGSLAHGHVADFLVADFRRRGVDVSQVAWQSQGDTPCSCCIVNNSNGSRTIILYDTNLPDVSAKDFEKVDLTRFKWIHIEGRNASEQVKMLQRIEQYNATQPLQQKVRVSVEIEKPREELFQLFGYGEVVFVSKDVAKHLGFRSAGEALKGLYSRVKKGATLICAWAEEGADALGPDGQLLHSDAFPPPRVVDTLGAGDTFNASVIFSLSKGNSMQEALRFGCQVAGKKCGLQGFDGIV
Sequence of Rat recombinant KHK-A (Q02974 other isoform, or with tags, fused parts or gaps): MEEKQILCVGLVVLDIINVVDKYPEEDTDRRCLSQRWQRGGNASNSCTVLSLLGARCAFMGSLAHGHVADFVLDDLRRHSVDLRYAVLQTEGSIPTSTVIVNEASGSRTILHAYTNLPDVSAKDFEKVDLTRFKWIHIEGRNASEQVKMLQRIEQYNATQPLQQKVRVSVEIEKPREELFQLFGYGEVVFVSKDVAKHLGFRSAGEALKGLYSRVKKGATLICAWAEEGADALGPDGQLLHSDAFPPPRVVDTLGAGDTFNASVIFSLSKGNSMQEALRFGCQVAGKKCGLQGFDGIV

Turning to `C[C@H]1CCN1c1nc(-c2cnn(CC(=O)N3CCNCC3)c2)cc(C(F)F)n1` [Compound A7, 2-(4-{2-[(S)-2-methyl-1-azetidinyl]-6-(difluoromethyl)-4-pyrimidinyl}-1-pyrazolyl)-1-(1-piperazinyl)-1-ethanone], the IC50 on Human recombinant KHK-A was determined as 160 nM; on Human recombinant KHK-C, 231 nM; on Rat recombinant KHK-A it was 46 nM; on Rat recombinant KHK-C it was 120 nM; against human KHK in HepG2 Cells, 332 nM.
For `Cc1c(-c2cnn(CC(=O)N3CCNCC3)c2)nc(N2CC[C@@H]2C(F)(F)F)nc1C(F)(F)F` [Compound A1, 2-(4-{2-[(R)-2-(trifluoromethyl)-1-azetidinyl]-5-methyl-6-(trifluoromethyl)-4-pyrimidinyl}-1-pyrazolyl)-1-(1-piperazinyl)-1-ethanone] the same measures were 6 nM, 4.06 nM, 2.2 nM, 9 nM and 7 nM.
On to `O=C(Cn1cc(-c2cc(C(F)(F)F)nc(N3CC[C@@H]3C(F)(F)F)n2)cn1)N1CCNCC1` [Compound A2, 2-(4-{2-[(R)-2-(trifluoromethyl)-1-azetidinyl]-6-(trifluoromethyl)-4-pyrimidinyl}-1-pyrazolyl)-1-(1-piperazinyl)-1-ethanone], for which the IC50 on Human recombinant KHK-A turned out to be 13.5 nM; at Human recombinant KHK-C, 31 nM; at Rat recombinant KHK-A, 9 nM; at Rat recombinant KHK-C, 26 nM; at human KHK in HepG2 Cells, 48 nM.
On the same counts, the results for `COc1c(-c2cnn(C3CN(C)C3)c2)nc(N2C[C@@H](O)[C@@H]2C)nc1C(F)F` [Compound A19, (2S,3R)-1-{6-(difluoromethyl)-5-methoxy-4-[1-(1-methyl-3-azetidinyl)-4-pyrazolyl]-2-pyrimidinyl}-2-methyl-3-azetidinol] are 27 nM, 10.6 nM, 6.6 nM, 17 nM and 23 nM.
Consider `Cc1c(-c2cnn(CC(=O)N3CCNCC3)c2)nc(N2CC[C@@H]2C(F)(F)F)nc1C(F)F` [Compound A18, 2-(4-{2-[(R)-2-(trifluoromethyl)-1-azetidinyl]-6-(difluoromethyl)-5-methyl-4-pyrimidinyl}-1-pyrazolyl)-1-(1-piperazinyl)-1-ethanone], for which the IC50 was found to be 5.3 nM at Human recombinant KHK-A; 7.42 nM on Human recombinant KHK-C; 4.1 nM on Rat recombinant KHK-A; 9.5 nM on Rat recombinant KHK-C; 11 nM against human KHK in HepG2 Cells.
Consider `Cc1c(-c2cnn(CC(=O)N3CCNCC3)c2)nc(N2CC[C@@H]2C)nc1C(F)F` [Compound A24, 2-(4-{2-[(S)-2-methyl-1-azetidinyl]-6-(difluoromethyl)-5-methyl-4-pyrimidinyl}-1-pyrazolyl)-1-(1-piperazinyl)-1-ethanone], for which the IC50 on Human recombinant KHK-A is 31 nM; at Human recombinant KHK-C, 14.7 nM; at Rat recombinant KHK-A it was 5.2 nM; at Rat recombinant KHK-C, 17 nM; against human KHK in HepG2 Cells it was 28 nM.
On the same counts, the results for `O=C(Cn1cc(-c2nc(N3CC[C@@H]3C(F)F)nc(C(F)(F)F)c2Cl)cn1)N1CCNCC1` [Compound A38, 2-(4-{2-[(R)-2-(difluoromethyl)-1-azetidinyl]-5-chloro-6-(trifluoromethyl)-4-pyrimidinyl}-1-pyrazolyl)-1-(1-piperazinyl)-1-ethanone] are 6.5 nM, 3.64 nM, 7.3 nM, 14 nM and 36 nM.
On to `CCc1c(-c2cnn(CC(=O)N3CCNCC3)c2)nc(N2CC[C@@H]2C)nc1C(F)(F)F` [Compound A6, 2-(4-{2-[(S)-2-methyl-1-azetidinyl]-5-ethyl-6-(trifluoromethyl)-4-pyrimidinyl}-1-pyrazolyl)-1-(1-piperazinyl)-1-ethanone], for which the IC50 at Human recombinant KHK-A came to 8.8 nM; at Human recombinant KHK-C, 15.7 nM; on Rat recombinant KHK-A it was 2.3 nM; at Rat recombinant KHK-C, 11 nM; at human KHK in HepG2 Cells it was 70 nM.
Consider `Cc1c(-c2cnn(CC(=O)N3CCNCC3)c2)nc(N2CC[C@@H]2C(F)F)nc1C(F)(F)F` [Compound A43, 2-(4-{2-[(R)-2-(difluoromethyl)-1-azetidinyl]-5-methyl-6-(trifluoromethyl)-4-pyrimidinyl}-1-pyrazolyl)-1-(1-piperazinyl)-1-ethanone], for which the IC50 at Human recombinant KHK-A amounted to 4.5 nM; at Human recombinant KHK-C, 8.03 nM; on Rat recombinant KHK-A, 6.8 nM; at Rat recombinant KHK-C it was 12 nM; at human KHK in HepG2 Cells, 23 nM.
On to `O=C(Cn1cc(-c2cc(C(F)(F)F)nc(N3CC[C@@H]3C(F)F)n2)cn1)N1CCNCC1` [Compound A33, 2-(4-{2-[(R)-2-(difluoromethyl)-1-azetidinyl]-6-(trifluoromethyl)-4-pyrimidinyl}-1-pyrazolyl)-1-(1-piperazinyl)-1-ethanone], for which the IC50 on Human recombinant KHK-A is 65 nM; at Human recombinant KHK-C, 90.9 nM; at Rat recombinant KHK-A, 23 nM; at Rat recombinant KHK-C, 86 nM.
For the molecule `CCc1c(-c2cnn(C3CN(C)C3)c2)nc(N2C[C@@H](O)[C@@H]2C)nc1C(F)(F)F` [Compound A11, (2S,3R)-1-{5-ethyl-4-[1-(1-methyl-3-azetidinyl)-4-pyrazolyl]-6-(trifluoromethyl)-2-pyrimidinyl}-2-methyl-3-azetidinol], the IC50 on Human recombinant KHK-A was 8.5 nM; at Human recombinant KHK-C, 2.09 nM; on Rat recombinant KHK-A, 0.96 nM; on Rat recombinant KHK-C, 2.1 nM; against human KHK in HepG2 Cells, 4 nM.
In the case of `CCc1c(-c2cnn(CC(=O)N3CCNCC3)c2)nc(N2CC[C@@H]2C)nc1C(F)F` [Compound A26, 2-(4-{2-[(S)-2-methyl-1-azetidinyl]-6-(difluoromethyl)-5-ethyl-4-pyrimidinyl}-1-pyrazolyl)-1-(1-piperazinyl)-1-ethanone], the IC50 on Human recombinant KHK-A is 13 nM; on Human recombinant KHK-C, 32.9 nM; at Rat recombinant KHK-A, 5.2 nM; at Rat recombinant KHK-C, 26 nM.
Take `Cc1c(-c2cnn(CC(=O)N3CCNCC3)c2)nc(N2CC[C@@H]2C(F)F)nc1C(F)F` [Compound A42, 2-(4-{2-[(R)-2-(difluoromethyl)-1-azetidinyl]-6-(difluoromethyl)-5-methyl-4-pyrimidinyl}-1-pyrazolyl)-1-(1-piperazinyl)-1-ethanone]: the IC50 turned out to be 13 nM on Human recombinant KHK-A; 18.3 nM at Human recombinant KHK-C; 10 nM at Rat recombinant KHK-A; 26 nM at Rat recombinant KHK-C; 43 nM against human KHK in HepG2 Cells.
As for `C[C@H]1[C@H](O)CN1c1nc(-c2cnn(C3CN(C)C3)c2)c(F)c(C(F)(F)F)n1` [Compound A27, (2S,3R)-1-{5-fluoro-4-[1-(1-methyl-3-azetidinyl)-4-pyrazolyl]-6-(trifluoromethyl)-2-pyrimidinyl}-2-methyl-3-azetidinol], the concentration for half-maximal inhibition (IC50) came out at 4.09 nM at Human recombinant KHK-C and 9 nM on human KHK in HepG2 Cells.

Usually IC50 stands for the midpoint of a concentration-inhibition curve.
